Data on 95 molecules can be found in paper PMC2779488, “Integrating In Silico and In Vitro Analysis of Peptide Binding Affinity to HLA-Cw*0102: A Bioinformatic Approach to the Prediction of New Epitopes” (PLoS ONE, 2009).

No end group written: not given here.

The first assay has as its target HLA-Cw*0102 (Homo sapiens, UniProt P10321, A176E/A330V/A35S/A97T/C350S/D114A/D33F/L171W/L180R/L218V/M285V/M309V/M331V/P208H/Q277E/Q291P/R121W/R243W/R30K/S123C/S140Y/S297R/T329A/T363A/V272M/V319A). Put plainly: FACS-based MHC stabilisation assay (peptide binding, T2 cells).
Conditions: not given
Regarding `CC(C)[C@H](NC(=O)[C@H](C)N)C(=O)N[C@@H](CC(=O)O)C(=O)N[C@@H](C)C(=O)N[C@@H](CC(=O)O)C(=O)N[C@@H](CC(=O)O)C(=O)N[C@@H](CO)C(=O)N[C@@H](Cc1c[nH]cn1)C(=O)N[C@@H](Cc1ccccc1)C(=O)O` [A V D A D D S H F], the EC50 is over 1000 µM.

The molecule ADDSHFVSI [A D D S H F V S I] returned an EC50 of over 1000 µM.

Molecule ATSPIVPSL [A T S P I V P S L] showed an EC50 of 4.15 µM.

Take DADDSHFVS [D A D D S H F V S]: the EC50 was over 1000 µM.

ELIRTVRLI displayed an EC50 of over 1000 µM.

On to EQFGNKTIV, for which the EC50 was over 1000 µM.

In turn, FPISPIETV displayed an EC50 of over 1000 µM.

“I L S P L T K G I: initial-set nonamer, Table 1 No. 13”: the “pBL50(exp)” value was 3.061.

ILRRPTSPV [I L R R P T S P V]: the EC50 is 7.96 µM.

Turning to ILSRSKESV [I L S R S K E S V], the “pBL50 / binder class as quoted in text” value is on record as “non-binder”.

IVIWGKTPK registered an EC50 of over 1000 µM.

Consider IVRMYSPTS, for which the EC50 was over 1000 µM.

As to KATSPIVPS [K A T S P I V P S], the EC50 is over 1000 µM.

With LITPKKIKP, the EC50 was over 1000 µM.

On to LSPLTKGIL [L S P L T K G I L], for which the EC50 was 3.79 µM.

Regarding LVSAGIRKV, the EC50 was over 1000 µM.

Turning to NCPERIATL, the EC50 is 0.201 µM.

For the molecule NSTWSTEGS, the EC50 is over 1000 µM.

The molecule NYTSLIHSL showed an EC50 of over 1000 µM.

For the molecule PQSQGVVES, the EC50 is over 1000 µM.

PVPLQLPPL had an EC50 of 3.16 µM.

As for SLEECDSEL [S L E E C D S E L], the EC50 is 375 µM.

In turn, VDADDSHFV [V D A D D S H F V] displayed an EC50 of over 1000 µM.

For the molecule VIPMFSALS [VIPMFSALS], the EC50 was 2.45 µM.

VVPRRKAKI gave an EC50 of over 1000 µM.

The same assay, now with this note: Table 3 newly-designed peptides; T2 cells, peptide 200-0.04 µM, 16 h 37°C, mAb VP6G3, flow cytometry; read-out: pBL50 (exp) (converted).
Turning to ACPERIITL, the EC50 was 0.185 µM.

On to NCPERIITA, for which the EC50 is 0.257 µM.

The assay is the same for the next values; noted with them: Table 4 HIV-1 peptides; T2 cells, peptide 200-0.04 µM, 16 h 37°C, mAb VP6G3, flow cytometry; read-out: pBL50 (exp) (converted).
For CAPAGFAIL, the EC50 was 0.00987 µM.

As for ELQAIYLAL [ELQAIYLAL], the EC50 was 1.25 µM.

On to FQSSMTKIL, for which the EC50 was 0.701 µM.

As to IVTRIVELL, the EC50 was 1.12 µM.

Regarding LLRWGFTTP, the EC50 was 2.05 µM.

Consider LQILAIVAL [LQILAIVAL], for which the EC50 is 0.766 µM.

In the case of LTEEKIKAL [LTEEKIKAL], the EC50 was 5.19 µM.

With RVRQGYSPL, the EC50 is 0.0866 µM.

The same assay, now with this note: pBL50(exp).
In turn, `CC(C)C[C@H](NC(=O)[C@H](C)NC(=O)[C@@H]1CCCN1C(=O)[C@H](Cc1ccc(O)cc1)NC(=O)[C@H](CC(N)=O)NC(=O)CNC(=O)[C@@H]1CCCN1C(=O)[C@H](C)NC(=O)[C@@H](N)Cc1ccccc1)C(=O)O` [F A P G N Y P A L] had an EC50 of 0.189 µM.

Take `CC[C@H](C)[C@H](N)C(=O)N[C@@H](CC(C)C)C(=O)N[C@@H](CCCCN)C(=O)N[C@@H](CCC(=O)O)C(=O)N1CCC[C@H]1C(=O)N[C@H](C(=O)N[C@@H](Cc1cnc[nH]1)C(=O)NCC(=O)N[C@H](C(=O)O)C(C)C)C(C)C` [I L K E P V H G V]: the EC50 was over 1000 µM.

On to `CSCC[C@H](NC(=O)[C@H](C)NC(=O)[C@H](CCC(N)=O)NC(=O)[C@H](CO)NC(=O)[C@@H]1CCCN1C(=O)[C@@H](N)CC(C)C)C(=O)N[C@@H](CC(=O)O)C(=O)N[C@@H](CC(=O)O)C(=O)N[C@@H](CC(C)C)C(=O)O` [L P S Q A M D D L], for which the EC50 was over 1000 µM.

As to AAPAYSRAL [A A P A Y S R A L], the EC50 is 1.77 µM.

Take ADAEKPFYV [A D A E K P F Y V]: the EC50 is over 1000 µM.

With AQPQTTTPL [A Q P Q T T T P L], the EC50 was 0.122 µM.

CAPREPHVV showed an EC50 of 0.38 µM.

CMPDWLDRL gave an EC50 of 0.331 µM.

Consider DLLTSPDVG [D L L T S P D V G], for which the EC50 is over 1000 µM.

Turning to EAPMWDHWL, the EC50 was 0.49 µM.

ECPQGITPV had an EC50 of 0.109 µM.

Turning to EFPWVFIEL, the EC50 was 0.355 µM.

EQPERYESV: the EC50 is 0.132 µM.

In turn, FAPYNKPSL [F A P Y N K P S L] had an EC50 of 0.611 µM.

Take FMPIMKNEV: the EC50 was 0.676 µM.

In turn, GADAEKPFY [G A D A E K P F Y] displayed an EC50 of over 1000 µM.

On to GIPEPAHAY [G I P E P A H A Y], for which the EC50 was over 1000 µM.

Molecule HLPETKFSE [H L P E T K F S E] gave an EC50 of over 1000 µM.

In the case of HMPDVGCIL, the EC50 was 0.178 µM.

The molecule HNPGIATPV had an EC50 of 0.661 µM.

Consider ILSPRKESV [I L S P R K E S V], for which the EC50 was 17.2 µM.

For ILSPRSESV [I L S P R S E S V], the EC50 was 2.62 µM.

ILSPRSKES [I L S P R S K E S]: the EC50 was 292 µM.

Consider ILSPSKESV [I L S P S K E S V], for which the EC50 is 11.4 µM.

ILSRSKESV [I L S R S K E S V] gave an EC50 of over 1000 µM.

On to IPEPAHAYA [I P E P A H A Y A], for which the EC50 is over 1000 µM.

On to ITPTGTHPL [I T P T G T H P L], for which the EC50 is 0.283 µM.

As to KSPLDIVNL, the EC50 is 1.91 µM.

Molecule LGPEKLQYL showed an EC50 of 0.151 µM.

For LLKLASPEL [L L K L A S P E L], the EC50 was over 1000 µM.

Take LLTSPDVGL [L L T S P D V G L]: the EC50 is 11.7 µM.

For the molecule LPETKFSEL [L P E T K F S E L], the EC50 was 6.37 µM.

As to LSPPKKKDL [L S P P K K K D L], the EC50 is over 1000 µM.

LSPRSKESV [L S P R S K E S V] had an EC50 of 0.91 µM.

The molecule LTSPDVGLL [L T S P D V G L L] gave an EC50 of 27.4 µM.

As for MQPSRGKTL, the EC50 was 0.17 µM.

NAPERIITL had an EC50 of 0.00314 µM.

NAPWAVTSL [N A P W A V T S L]: the EC50 was 0.142 µM.

For NCAERIITL, the EC50 was 0.434 µM.

The molecule NCPARIITL had an EC50 of 0.114 µM.

NCPEAIITL showed an EC50 of 0.193 µM.

On to NCPEGYTSL, for which the EC50 was 0.0724 µM.

The molecule NCPERAITL showed an EC50 of 0.244 µM.

NCPERIIAL [NCPERIIAL]: the EC50 is 0.141 µM.

Turning to NCPERIITL, the EC50 is 0.0634 µM.

The molecule NEPQRIEPL showed an EC50 of 0.0962 µM.

For PLPSQAMDD [P L P S Q A M D D], the EC50 is over 1000 µM.

As to PLSPPKKKD [P L S P P K K K D], the EC50 is 10.1 µM.

In the case of QYPKGDAWV, the EC50 is over 1000 µM.

The molecule SWPMQFDAL [SWPMQFDAL] showed an EC50 of 0.269 µM.

For the molecule TDPWFHRSL, the EC50 was 0.339 µM.

Consider VAPQLTFGL, for which the EC50 was 0.0162 µM.

For VAPWNSLSL [V A P W N S L S L], the EC50 was 0.703 µM.

The molecule VRPMRQWPL had an EC50 of 3.8 µM.

Regarding WAPHTDTSL, the EC50 was 0.0126 µM.

WGPGIIWAL [WGPGIIWAL] had an EC50 of 3.63 µM.

The molecule WRPDVNMQL gave an EC50 of 2.88 µM.

YAQPQTTTP [Y A Q P Q T T T P] showed an EC50 of 5.96 µM.

On to YMPTASCDL, for which the EC50 was 0.0129 µM.

As to YMTPSSRPL [Y M T P S S R P L], the EC50 is over 1000 µM.

Still in this assay, the particulars now being: pBL50 / binder class as quoted in text.
In turn, ILSPSKESV [peptide 17] had an EC50 of 1 to 31.6 µM.
